Values quoted from earlier work in patent US20030099724A1, “Compounds for prevention of diabetic retinopathy” (priority 2001, published 2003).

Assays:
diabetic retinopathy = settings: rat models

SMILES	progression of diabetic retinopathy (diabetic retinopathy)	solubility in alcohol (alcohol)	solubility in water (water)
N=C(N)NN [amino guanidine]	retards the progression of diabetic retinopathy	–	–
CCOC(=O)C1=C(COCCN)NC(C)=C(C(=O)OC)C1c1ccccc1Cl (stereo not drawn) [Amlodipine besylate, amlodipine besylate]	–	sparingly soluble	slightly soluble
